Measured values: PubChem BioAssay (NCI)
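All cell lines were grown in 96-well plates and treated with compound for 48 hours. GI50: concentration for 50% inhibition of growth. TGI marks complete inhibition of growth.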

What was measured:
Test in all cases: NCI anticancer screen, dose series, 48 h
[1] = test system: 786-0 renal
[2] = test system: A498 renal
[3] = test system: A549 NSCLC
[4] = test system: ACHN renal
[5] = test system: BT-549 breast
[6] = test system: CAKI-1 renal
[7] = test system: CCRF-CEM leukemia
[8] = test system: COLO 205 colon
[9] = test system: DU-145 prostate
[10] = test system: EKVX NSCLC
[11] = test system: HCC-2998 colon
[12] = test system: HCT-116 colon
[13] = test system: HCT-15 colon
[14] = test system: HL-60(TB) leukemia
[15] = test system: HOP-62 NSCLC
[16] = test system: HOP-92 NSCLC
[17] = test system: HS 578T breast
[18] = test system: HT29 colon
[19] = test system: IGROV1 ovarian
[20] = test system: K-562 leukemia
[21] = test system: KM12 colon
[22] = test system: LOX IMVI melanoma
[23] = test system: M14 melanoma
[24] = test system: MALME-3M melanoma
[25] = test system: MCF7 breast
[26] = test system: MDA-MB-231 breast
[27] = test system: MDA-MB-435
[28] = test system: MOLT-4 leukemia
[29] = test system: NCI-H226 lung
[30] = test system: NCI-H23 lung
[31] = test system: NCI-H460 lung
[32] = test system: NCI-H522 lung
[33] = test system: NCI/ADR-RES ovarian
[34] = test system: OVCAR-3 ovarian
[35] = test system: OVCAR-4 ovarian
[36] = test system: OVCAR-5 ovarian
[37] = test system: OVCAR-8 ovarian
[38] = test system: PC-3 prostate
[39] = test system: RPMI-8226 leukemia
[40] = test system: RXF 393 renal
[41] = test system: SF-268 CNS
[42] = test system: SF-295 CNS
[43] = test system: SF-539 CNS
[44] = test system: SK-MEL-2 melanoma
[45] = test system: SK-MEL-28 melanoma
[46] = test system: SK-MEL-5 melanoma
[47] = test system: SK-OV-3 ovarian
[48] = test system: SN12C renal
[49] = test system: SNB-19 CNS
[50] = test system: SNB-75 CNS
[51] = test system: SR leukemia
[52] = test system: SW-620 colon
[53] = test system: T-47D breast
[54] = test system: TK-10 renal
[55] = test system: U251 CNS
[56] = test system: UACC-257 melanoma
[57] = test system: UACC-62 melanoma
[58] = test system: UO-31 renal

SMILES: CC(C)Cn1cnc2c(N)nc3ccccc3c21
- GI50 [1]: 25.2 µM
- TGI [1]: > 87.3 µM
- GI50 [2]: 47.8 µM
- TGI [2]: > 100 µM
- GI50 [3]: 39.3 µM
- TGI [3]: > 100 µM
- GI50 [4]: 27.9 µM
- TGI [4]: > 100 µM
- GI50 [5]: 43.8 µM
- TGI [5]: > 100 µM
- GI50 [6]: 34.8 µM
- TGI [6]: > 100 µM
- GI50 [7]: > 49 µM
- TGI [7]: > 100 µM
- GI50 [8]: 20.7 µM
- TGI [8]: > 88.2 µM
- GI50 [9]: 47.2 µM
- TGI [9]: > 100 µM
- GI50 [10]: 26.2 µM
- TGI [10]: > 100 µM
- GI50 [11]: > 63.5 µM
- TGI [11]: > 100 µM
- GI50 [12]: 19.8 µM
- TGI [12]: > 73.1 µM
- GI50 [13]: 29.7 µM
- TGI [13]: > 100 µM
- GI50 [14]: > 47.7 µM
- TGI [14]: > 100 µM
- GI50 [15]: 22.5 µM
- TGI [15]: > 64.1 µM
- GI50 [16]: 31.1 µM
- TGI [16]: > 100 µM
- GI50 [17]: 60.8 µM
- TGI [17]: > 100 µM
- GI50 [18]: 28.8 µM
- TGI [18]: > 100 µM
- GI50 [19]: 51.8 µM
- TGI [19]: > 100 µM
- GI50 [20]: > 54.7 µM
- TGI [20]: > 100 µM
- GI50 [21]: 56.6 µM
- TGI [21]: > 100 µM
- GI50 [22]: 25.7 µM
- TGI [22]: > 100 µM
- GI50 [23]: 43.9 µM
- TGI [23]: > 100 µM
- GI50 [24]: > 100 µM
- TGI [24]: > 100 µM
- GI50 [25]: 29.4 µM
- TGI [25]: > 100 µM
- GI50 [26]: 46 µM
- TGI [26]: > 100 µM
- GI50 [27]: 48.9 µM
- TGI [27]: > 100 µM
- GI50 [28]: > 64.4 µM
- TGI [28]: > 100 µM
- GI50 [29]: 73.6 µM
- TGI [29]: > 100 µM
- GI50 [30]: 37.1 µM
- TGI [30]: > 100 µM
- GI50 [31]: 23.1 µM
- TGI [31]: > 100 µM
- GI50 [32]: 78.5 µM
- TGI [32]: > 100 µM
- GI50 [33]: 49 µM
- TGI [33]: > 100 µM
- GI50 [34]: > 92.9 µM
- TGI [34]: > 100 µM
- GI50 [35]: 67.2 µM
- TGI [35]: > 100 µM
- GI50 [36]: 65.4 µM
- TGI [36]: > 100 µM
- GI50 [37]: 67.5 µM
- TGI [37]: > 100 µM
- GI50 [38]: 34.7 µM
- TGI [38]: > 100 µM
- GI50 [39]: 5.5 µM
- TGI [39]: > 48.3 µM
- GI50 [40]: 28.9 µM
- TGI [40]: 97.2 µM
- GI50 [41]: 61.3 µM
- TGI [41]: > 100 µM
- GI50 [42]: 51.3 µM
- TGI [42]: > 100 µM
- GI50 [43]: 42.9 µM
- TGI [43]: > 100 µM
- GI50 [44]: 41.5 µM
- TGI [44]: > 100 µM
- GI50 [45]: > 74.9 µM
- TGI [45]: > 100 µM
- GI50 [46]: 18.4 µM
- TGI [46]: 50.3 µM
- GI50 [47]: > 100 µM
- TGI [47]: > 100 µM
- GI50 [48]: 78.8 µM
- TGI [48]: > 100 µM
- GI50 [49]: > 93.3 µM
- TGI [49]: > 100 µM
- GI50 [50]: 41.4 µM
- TGI [50]: > 100 µM
- GI50 [51]: > 100 µM
- TGI [51]: > 100 µM
- GI50 [52]: 41.8 µM
- TGI [52]: > 100 µM
- GI50 [53]: 41.6 µM
- TGI [53]: > 100 µM
- GI50 [54]: 94.8 µM
- TGI [54]: > 100 µM
- GI50 [55]: 47.5 µM
- TGI [55]: > 100 µM
- GI50 [56]: 33.7 µM
- TGI [56]: > 91.5 µM
- GI50 [57]: 38.4 µM
- TGI [57]: > 100 µM
- GI50 [58]: 35.8 µM
- TGI [58]: > 100 µM
